Assay results taken from patent US20020155443A1, “Metal binding DNA interactive compounds” (priority 2000, published 2002).

Tests used:
[1] = tested on: Form I DNA; test: Cleavage of Form I DNA under mildly alkaline conditions; format: biochemical; conditions: mildly alkaline (pH 8.5) conditions
From the text: It is believed that the DNA damage due to 2.12 is insensitive to either the addition of radical scavengers or the exclusion of oxygen. Additionally, treatment of a methanolic solution of 2.12 with aqueous NaOH led to the production of the bis(enol ether) 2.13 as depicted in FIG. 4.

[2] = tested on: B16 murine melanoma cells; test: Growth inhibition of B16 murine melanoma cells, MTT assay; format: cell-based; conditions: Mus musculus, B16, read-out: IC50, growth inhibition
Protocol: The growth inhibitory activities of bis(propargylic) sulfone crown ethers 2.47 and 2.48 against B16 murine melanoma cells were determined calorimetrically with an MTT assay conducted by the Institute for Drug Development at the Cancer Research and Therapy Center in San Antonio, Tex.

melting point | Structure (SMILES) | further results
– | O=S1(=O)CC#CCOCCOCCOCCOCC#CC1 [Compound 2.12] | cleavage of Form I DNA [1]: dose-dependent cleavage
79.5 to 80.5 °C | CCOC(=O)c1cccc(CS(=O)(=O)CC#CCO)c1 [Compound 3.3] | –
– | C1#CCOCCOCCOCCOCCOCCOCC#C/C=C\1 [Compound 4.7] | IC50 [2]: 68 µM
176.5 to 177.5 °C | O=S1(=O)CC#CCOc2ccccc2OCC#CC1 [Compound 2.10] | –
